Source: patent US20060217443A1, “Method for preventing and/or treating vaginal and vulval infections” (Kimberly-Clark Worldwide, Inc., priority 2005, published 2006)
Where two headings read alike, the source gives them in different places.

Experiments:
[1] = Highest concentration obtainable in water; type: physicochemical; settings: gallic acid monohydrate, only partially water soluble
Gardnerella vaginalis = assay: Inhibition test in solution by plate count, Gardnerella vaginalis; type: cell-based; settings: 7.5 mg/ml gallic acid
Experimental: A sample of Gardnerella vaginalis, the pathogenic bacterium found in bacterial vaginosis, was obtained from the American Type Culture Collection (ATCC), catalog number 14018. The culture medium was ATCC medium 70 and Casman's medium (BD 229010) with 5 percent rabbit blood.
A test compound of Gardnerella vaginalis was prepared in culture media to form a suspension. Control and gallic acid solutions (0.9 milliliters; 7.5 milligram gallic acid/milliliter) were filtered and added into separate culture tubes, and to these were added 0.1 milliliter of the Gardnerella vaginalis suspension at a concentration of around 10^6 cfu/milliliter. The culture tubes were incubated at 37 degrees Celsius for 24 hours.
The samples in the culture tubes were then diluted at 1, 10 and 100 times, and 100 microliters of each dilution was plated onto agar plates with WASP (Whitely Automatic Spiral Plate) spiral plating equipment from Don Whitely Scientific Limited, USA. The plates were incubated overnight at 35 degrees Celsius, and the colonies were counted on each plate by either ProtoCol® from Synbiosis, Frederick, Md., USA Whitely Scientific Limited, USA or by hand count.

[2] = test system: Lactobacillus acidophilus; assay: Zone-of-inhibition test, Lactobacillus acidophilus; type: cell-based
Experimental: (§1) A sample of Lactobacillus acidophilus, a desirable bacterium in the vaginal ecosystem, was also obtained from the American Type Culture Collection (ATCC), catalog number 4354, and was cultured in ATCC medium 416. A microorganism culture of 10^5 cfu (colony forming units)/milliliter in a 1× phosphate buffered saline (PBS) solution (diluted from 10× PBS LIQUID CONCENTRATE from VWR Cat. No. EM-6507] was prepared for each of Candida albicans and Lactobacillus acidophilus. One milliliter of each solution was plated on proper agar plates, depending on which microorganism was being tested. The agar plates were incubated at 35 degrees Celsius for four hours. Three 4 millimeter diameter wells were then punched into each agar plate. A test sample of 10 mg/ml gallic acid in sterilized 2-N-morpholino ethane sulfonic (MES, pH=4.7) buffer (0.1 M 2-[morpholino]-ethanesulfonic acid, 0.9 percent NaCl, pH 4.7, prepared from BupHTM MES Buffer Saline Pack from Cat. No. 28390, Pierce Biotechnology, Inc., Rockford, Ill.) was added to one well of each plate. […] The plates were incubated overnight at 35 degrees Celsius. The presence of a zone of microorganism inhibition was measured the following day for Candida albicans and Lactobacillus acidophilus activity, respectively.

Trichomonas vaginalis = assay: Viable Trichomonas vaginalis cell count under a microscope; type: cell-based; settings: for Inhibitory effect on Trichomonas vaginalis cell counts compared to control: gallic acid 0.11 percent
Experimental: A sample of Trichomonas vaginalis, the parasite found in trichomonas vaginitis, was obtained from the American Type Culture Collection (ATCC), catalog number 30001. The culture medium was LYI-S-2 medium (ATCC medium 2154).
A sterile LYI-S-2 medium was prepared according to the manufacturer's instructions, and the pH of this medium was adjusted to pH 6.0 using 1 N HCl. Gallic acid monohydrate (SIGMA-398225 from Signa Aldrich, USA) was dissolved in the LYI-S-2 medium. […] 0.9 milliliter of the gallic acid/LYI-S-2 solution or culture medium only (as control) was added into different culture tubes.
0.1 milliliter of Trichomonas vaginalis culture suspension, at a concentration of 1×10^6/milliliter, was added to each of the culture tubes, which were then incubated at 35 degrees Celsius on a 15 degree horizontal slant.
The viable Trichomonas vaginalis cells in each tube were counted under a microscope after 24 hours.
This procedure was repeated twice.
Essentially the same procedure was performed as described in Example 1, but this time differing concentrations of gallic acid were tested on samples of Trichomonas vaginalis. The gallic acid concentrations that were tested were: 0.11 percent, 0.66 percent and 1.1 percent. More samples in each group were included (n=4), and the effects of the gallic acid over a longer time period were also observed, i.e. after 24 and 48 hours.

[3] = test system: Lactobacillus acidophilus; assay: Inhibition test in solution by measuring optical density, Lactobacillus acidophilus; type: cell-based; settings: gallic acid 5 milligram/milliliter, 24 hours, FIG. 4
Experimental: A sample of Lactobacillus acidophilus, a desirable bacterium in the vaginal ecosystem, was also obtained from the American Type Culture Collection (ATCC), catalog number 4354, and was cultured in ATCC medium 416. […] Control and gallic acid solutions (0.9 milliliters) were filtered and added into separate culture tubes, and to these were added 0.1 milliliter of either the Candida albicans or Lactobacillus acidophilus suspension at a concentration of around 10^6 cfu/milliliter. The culture tubes were then incubated overnight at 37 degrees Celsius, whereafter the optical density was measured at 2, 4, 6 and 24 hours at 590 nanometers, by pippeting 100 microliters of the control or sample solutions into 96-well microplates, and then using a Molecular Devices of Sunnyvale, Calif. ThermoMax Microplate Reader to obtain the optical density readings at 590 nm wavelengths.

Candida albicans [4] = assay: Zone-of-inhibition test, Candida albicans; type: cell-based
Experimental: as §1, with “Candida albicans, the yeast found” for “Lactobacillus acidophilus, a desirable bacterium”, “candidiasis,” for “the vaginal ecosystem,”, “10231,” for “4354,”, “YM agar (Difco 0712) and YM broth (Difco 0711).” for “ATCC medium 416.”

Candida albicans [5] = assay: Inhibition test in solution by measuring optical density, Candida albicans; type: cell-based; settings: gallic acid 5 milligram/milliliter, 24 hours, FIG. 3
Experimental: A sample of Candida albicans, the yeast found in candidiasis, was also obtained from the American Type Culture Collection (ATCC), catalog number 10231, and was cultured in YM agar (Difco 0712) and YM broth (Difco 0711). […] Control and gallic acid solutions (0.9 milliliters) were filtered and added into separate culture tubes, and to these were added 0.1 milliliter of either the Candida albicans or Lactobacillus acidophilus suspension at a concentration of around 10^6 cfu/milliliter. The culture tubes were then incubated overnight at 37 degrees Celsius, whereafter the optical density was measured at 2, 4, 6 and 24 hours at 590 nanometers, by pippeting 100 microliters of the control or sample solutions into 96-well microplates, and then using a Molecular Devices of Sunnyvale, Calif. ThermoMax Microplate Reader to obtain the optical density readings at 590 nm wavelengths.

[6] = test system: Lactobacillus acidophilus; settings: previously shown; cited from earlier work
[7] = 10 milligram/ml gallic acid or 0.5 percent Benzyl Quats in well, MES buffer pH 4.7, overnight 35 degrees Celsius, n = 2
[8] = zone-of-inhibition test, gallic acid 10 mg/ml, Benzyl Quats 0.5 percent

O=C(O)c1cc(O)c(O)c(O)c1 [gallic acid, 3,4,5-trihydroxybenzoic acid]
Highest concentration of gallic acid that could be obtained in water [1]: 1.1 percent (g/100 milliliter)
Gardnerella vaginalis plate count, Average (Gardnerella vaginalis; 24 hours treatment, n = 4, negative control 1.81E+08, p < 0.05): *3.43E+04
inhibition at 7500 µg/mL (Gardnerella vaginalis; Gardnerella vaginalis, 24 hours of treatment, read-out: Inhibition on the growth of Gardnerella vaginalis compared to control group): > 100%
Zone of inhibition, Lactobacillus acidophilus [2, 7]: 0 millimeter
Effect on growth of Lactobacillus acidophilus (in words) [2, 8]: did not affect the growth of Lactobacillus acidophilus
Inhibitory effect on Trichomonas vaginalis cell counts compared to control (Trichomonas vaginalis; 24 hours, n=4, FIG. 1): 50%
Inhibitory effect on Trichomonas vaginalis cell counts compared to control (Trichomonas vaginalis; 48 hours, n=4, FIG. 2): 70%
Live Trichomonas vaginalis cells (in words) (Trichomonas vaginalis; gallic acid 0.66 percent, 24 hours, n=4, Example 2): No live Trichomonas vaginalis cells were observed
Live Trichomonas vaginalis cells (in words) (Trichomonas vaginalis; gallic acid 0.66 percent, 48 hours, n=4, Example 2): No live Trichomonas vaginalis cells were observed
Live Trichomonas vaginalis cells (in words) (Trichomonas vaginalis; gallic acid 1.1 percent, 24 hours, Example 1): no live Trichomonas vaginalis cells were observed
Number of Trichomonas cells, Repeat 2 (Trichomonas vaginalis; gallic acid 1.1 percent, 24 hours, Example 1, control 1 000 000): 0
Number of Trichomonas cells, Repeat 1 (Trichomonas vaginalis; gallic acid 1.1 percent, 24 hours, Example 1, control 900 000): 0
Live Trichomonas vaginalis cells (in words) (Trichomonas vaginalis; gallic acid 1.1 percent, 24 hours, n=4, Example 2): No live Trichomonas vaginalis cells were observed
Live Trichomonas vaginalis cells (in words) (Trichomonas vaginalis; gallic acid 1.1 percent, 48 hours, n=4, Example 2): No live Trichomonas vaginalis cells were observed
Growth of Lactobacillus acidophilus by optical density at 590 nm (in words) [3]: did not show any significant inhibition
Zone of inhibition, Candida albicans (Candida albicans [4]; [7]): 5 millimeter
Effect on growth of Candida albicans (in words) (Candida albicans [4]; [8]): selectively inhibited Candida albicans
Growth of Candida albicans by optical density at 590 nm (in words) (Candida albicans [5]): significantly inhibit the growth of Candida albicans
Effect on growth of Lactobacillus acidophilus (in words) [6]: does not affect the growth of Lactobacillus acidophilus
